Measured values from PubChem BioAssay (NCI).
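Step 1: Grow cells in 96-well plates. Step 2: Expose to compound for 48 hours at 5 concentrations. Step 3: Interpolate endpoints linearly; if unreached, use highest concentration. TGI is the concentration that stops growth completely.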

Tests used:
Test in all cases: DTP human tumour cell line panel, 48 h
U251 CNS = test system: U251 CNS
MDA-MB-231 breast = test system: MDA-MB-231 breast
SR leukemia = test system: SR leukemia
SK-MEL-28 melanoma = test system: SK-MEL-28 melanoma
SNB-75 CNS = test system: SNB-75 CNS
TK-10 renal = test system: TK-10 renal
KM12 colon = test system: KM12 colon
SK-MEL-2 melanoma = test system: SK-MEL-2 melanoma
SF-268 CNS = test system: SF-268 CNS
786-0 renal = test system: 786-0 renal
SK-MEL-5 melanoma = test system: SK-MEL-5 melanoma
MDA-N = test system: MDA-N
PC-3 prostate = test system: PC-3 prostate
SK-OV-3 ovarian = test system: SK-OV-3 ovarian
OVCAR-5 ovarian = test system: OVCAR-5 ovarian
A549 NSCLC = test system: A549 NSCLC
A498 renal = test system: A498 renal
HL-60(TB) leukemia = test system: HL-60(TB) leukemia
HOP-62 NSCLC = test system: HOP-62 NSCLC
DU-145 prostate = test system: DU-145 prostate
M14 melanoma = test system: M14 melanoma
HCT-116 colon = test system: HCT-116 colon
LOX IMVI melanoma = test system: LOX IMVI melanoma
RPMI-8226 leukemia = test system: RPMI-8226 leukemia
SW-620 colon = test system: SW-620 colon
UACC-257 melanoma = test system: UACC-257 melanoma
EKVX NSCLC = test system: EKVX NSCLC
MDA-MB-435 = test system: MDA-MB-435
HOP-92 NSCLC = test system: HOP-92 NSCLC
SNB-19 CNS = test system: SNB-19 CNS
OVCAR-8 ovarian = test system: OVCAR-8 ovarian
CCRF-CEM leukemia = test system: CCRF-CEM leukemia
K-562 leukemia = test system: K-562 leukemia
HCT-15 colon = test system: HCT-15 colon
UACC-62 melanoma = test system: UACC-62 melanoma
HT29 colon = test system: HT29 colon
IGROV1 ovarian = test system: IGROV1 ovarian
SN12C renal = test system: SN12C renal
HS 578T breast = test system: HS 578T breast
CAKI-1 renal = test system: CAKI-1 renal
MOLT-4 leukemia = test system: MOLT-4 leukemia
ACHN renal = test system: ACHN renal
MCF7 breast = test system: MCF7 breast
NCI/ADR-RES ovarian = test system: NCI/ADR-RES ovarian
OVCAR-3 ovarian = test system: OVCAR-3 ovarian
BT-549 breast = test system: BT-549 breast
UO-31 renal = test system: UO-31 renal
SF-539 CNS = test system: SF-539 CNS
NCI-H460 lung = test system: NCI-H460 lung
OVCAR-4 ovarian = test system: OVCAR-4 ovarian
NCI-H522 lung = test system: NCI-H522 lung
SF-295 CNS = test system: SF-295 CNS
NCI-H226 lung = test system: NCI-H226 lung
NCI-H23 lung = test system: NCI-H23 lung
HCC-2998 colon = test system: HCC-2998 colon
MALME-3M melanoma = test system: MALME-3M melanoma
COLO 205 colon = test system: COLO 205 colon

`CCCCCCCCCCCCCCCCCc1nc(C#N)c(N)o1` was tested, and the TGI (U251 CNS) was > 100 µM, the TGI (MDA-MB-231 breast) was 96.5 µM and the TGI (SR leukemia) was 33.3 µM. For the same compound, the TGI (SK-MEL-28 melanoma) was > 100 µM, the TGI (SNB-75 CNS) was 70.2 µM and the TGI (TK-10 renal) was > 100 µM. The TGI (KM12 colon) was > 100 µM, the TGI (SK-MEL-2 melanoma) was > 100 µM and the TGI (SF-268 CNS) was > 100 µM. The TGI (786-0 renal) was > 100 µM, the TGI (SK-MEL-5 melanoma) was > 100 µM and the TGI (MDA-N) was > 100 µM. For the same compound, the TGI (PC-3 prostate) was > 100 µM, the TGI (SK-OV-3 ovarian) was > 100 µM and the TGI (OVCAR-5 ovarian) was > 100 µM. For the same compound, the TGI (A549 NSCLC) was > 100 µM, the TGI (A498 renal) was > 100 µM and the TGI (HL-60(TB) leukemia) was 69.6 µM. For the same compound, the TGI (HOP-62 NSCLC) was > 100 µM, the TGI (DU-145 prostate) was > 100 µM and the TGI (M14 melanoma) was > 100 µM. The TGI (HCT-116 colon) was > 100 µM, the TGI (LOX IMVI melanoma) was > 100 µM and the TGI (RPMI-8226 leukemia) was 52 µM. For the same compound, the TGI (SW-620 colon) was > 100 µM, the TGI (UACC-257 melanoma) was > 100 µM and the TGI (EKVX NSCLC) was > 100 µM. For the same compound, the TGI (MDA-MB-435) was > 100 µM, the TGI (HOP-92 NSCLC) was > 100 µM and the TGI (SNB-19 CNS) was > 100 µM. The TGI (OVCAR-8 ovarian) was 51.8 µM, the TGI (CCRF-CEM leukemia) was > 100 µM and the TGI (K-562 leukemia) was > 100 µM. The TGI (HCT-15 colon) was > 100 µM, the TGI (UACC-62 melanoma) was > 100 µM and the TGI (HT29 colon) was > 100 µM. The TGI (IGROV1 ovarian) was 36.4 µM, the TGI (SN12C renal) was > 100 µM and the TGI (HS 578T breast) was 85.4 µM. For the same compound, the TGI (CAKI-1 renal) was > 100 µM, the TGI (MOLT-4 leukemia) was > 100 µM and the TGI (ACHN renal) was > 100 µM. For the same compound, the TGI (MCF7 breast) was > 100 µM.

With `O=C(c1ccccc1)c1cc(-c2ccccc2)c(-c2ccccc2)[nH]c(=O)c1=O` the TGI (U251 CNS) was > 100 µM, the TGI (NCI/ADR-RES ovarian) was > 100 µM and the TGI (MDA-MB-231 breast) was > 100 µM. For the same compound, the TGI (SR leukemia) was 57.1 µM, the TGI (SK-MEL-28 melanoma) was > 100 µM and the TGI (TK-10 renal) was > 100 µM. For the same compound, the TGI (OVCAR-3 ovarian) was > 100 µM, the TGI (KM12 colon) was > 100 µM and the TGI (BT-549 breast) was 53.1 µM. For the same compound, the TGI (SK-MEL-2 melanoma) was 57.5 µM, the TGI (SF-268 CNS) was > 100 µM and the TGI (786-0 renal) was > 100 µM. For the same compound, the TGI (SK-MEL-5 melanoma) was > 100 µM, the TGI (MDA-N) was > 100 µM and the TGI (UO-31 renal) was > 100 µM. The TGI (PC-3 prostate) was > 100 µM, the TGI (SK-OV-3 ovarian) was > 100 µM and the TGI (OVCAR-5 ovarian) was > 100 µM. For the same compound, the TGI (A549 NSCLC) was > 100 µM, the TGI (A498 renal) was > 100 µM and the TGI (SF-539 CNS) was > 100 µM. The TGI (HL-60(TB) leukemia) was 40.4 µM, the TGI (HOP-62 NSCLC) was > 100 µM and the TGI (M14 melanoma) was > 100 µM. For the same compound, the TGI (HCT-116 colon) was > 100 µM, the TGI (LOX IMVI melanoma) was > 100 µM and the TGI (RPMI-8226 leukemia) was 60 µM. The TGI (SW-620 colon) was > 100 µM, the TGI (UACC-257 melanoma) was > 100 µM and the TGI (EKVX NSCLC) was > 100 µM. For the same compound, the TGI (MDA-MB-435) was > 100 µM, the TGI (NCI-H460 lung) was > 100 µM and the TGI (HOP-92 NSCLC) was > 100 µM. For the same compound, the TGI (SNB-19 CNS) was > 100 µM, the TGI (OVCAR-8 ovarian) was > 100 µM and the TGI (CCRF-CEM leukemia) was > 100 µM. For the same compound, the TGI (K-562 leukemia) was > 100 µM, the TGI (HCT-15 colon) was > 100 µM and the TGI (UACC-62 melanoma) was 82.2 µM. The TGI (HT29 colon) was > 100 µM, the TGI (IGROV1 ovarian) was > 100 µM and the TGI (OVCAR-4 ovarian) was > 100 µM. The TGI (SN12C renal) was > 100 µM, the TGI (NCI-H522 lung) was 74.4 µM and the TGI (HS 578T breast) was > 100 µM. The TGI (SF-295 CNS) was > 100 µM, the TGI (CAKI-1 renal) was > 100 µM and the TGI (MOLT-4 leukemia) was 57.2 µM. For the same compound, the TGI (ACHN renal) was > 100 µM, the TGI (NCI-H226 lung) was > 100 µM and the TGI (NCI-H23 lung) was 49.4 µM. For the same compound, the TGI (MCF7 breast) was > 100 µM, the TGI (HCC-2998 colon) was 60.6 µM and the TGI (MALME-3M melanoma) was > 100 µM. For the same compound, the TGI (COLO 205 colon) was 61.5 µM.
